{
  "source": "patent US9932637B2",
  "about": "“Genetic polymorphisms associated with cardiovascular disorders and drug response, methods of detection and uses thereof” (CELERA CORPORATION, priority 2003, dated 2018)",
  "tested_on": "patients with prior myocardial infarction (CARE study)",
  "assay": "CARE aligned analysis (prospective and case/control design, white males): association of genotypes with pravastatin efficacy (Tables 13, 15)",
  "type": "in vivo, human",
  "conditions": "for Pravastatin Patients (%) / Pravastatin Patients n/total / 2 Rare Alleles (%), Pravastatin Patients / 2 Rare Alleles n/total, Pravastatin Patients: F&NF MI; for Pravastatin Patients (%) / Pravastatin Patients n/total: WM; for 2 rare alleles n/total (%), pravastatin patients / Pravastatin vs placebo odds ratio, 0 rare alleles / Pravastatin vs placebo odds ratio, 1 rare allele / Pravastatin vs placebo odds ratio, 2 rare alleles: CARE, F MI/SD/NF MI",
  "method": "The data presented in Table 8 based on an association of genotypes with pravastatin efficacy of the CARE samples were further analyzed and presented in Table 13. The further analysis was performed to align the data obtained from the analysis of the CARE samples, which was a prospective study, to the analysis of the WOSCOP samples, which was a case/control study. Table 13 also presents an analysis of the association of genotypes with pravastatin efficacy in the WOSCOPs samples. Relative to the analysis performed on the data presented in Table 8, there are two significant differences to determine if the SNP influenced pravastatin efficacy. Data obtained from the CARE samples were separated by study design into two groups, those in the prospective study design group and those in the case/control study design group. The original care study contained 16 protocol defined cardiovascular disease defined endpoints and 150 other phenotypes. […] The control groups used to compare the data were also divided into two groups, the “all possible” control group and the “cleaner” control group. […] Because the participants in the WOSCOPs trial were all white males, only data obtained from white males in the CARE study were analysed. Data from the “all possible” and “cleaner” controls were compared to data obtained from the cases in the prospective study design while only data from “cleaner” controls were compared to cases in the case/control study design. The data from the case/control cohorts were analysed using conditional logistic regression (as opposed to logistic regression used for the original anaylsis).\nThe anaylsis was refined as described for both Tables 13 and 14.",
  "key": {"[1]": {"conditions": "HLA-DPB1 hCV8851085, 0 Rare Alleles, CARE Prospective, Cleaner controls"}, "[2]": {"conditions": "HLA-DPB1 hCV8851085, 1 Rare Allele, CARE Case/Control, All Possible controls"}, "[3]": {"conditions": "HLA-DPB1 hCV8851085, 1 Rare Allele, CARE Case/Control, Cleaner controls"}, "[4]": {"conditions": "HLA-DPB1 hCV8851085, 1 Rare Allele, CARE Prospective, All Possible controls"}, "[5]": {"conditions": "HLA-DPB1 hCV8851085, 1 Rare Allele, CARE Prospective, Cleaner controls"}, "[6]": {"conditions": "HLA-DPB1 hCV8851085, Case/Control"}, "[7]": {"conditions": "HLA-DPB1 hCV8851085, Prospective"}, "[8]": {"conditions": "HLA-DPB1 hCV25651174, Case/Control"}, "[9]": {"conditions": "HLA-DPB1 hCV25651174, Prospective"}, "[10]": {"conditions": "HLA-DQB1 hCV9494470, 0 Rare Alleles, CARE Case/Control, All Possible controls"}, "[11]": {"conditions": "HLA-DQB1 hCV9494470, 0 Rare Alleles, CARE Case/Control, Cleaner controls"}, "[12]": {"conditions": "HLA-DQB1 hCV9494470, 0 Rare Alleles, CARE Prospective, All Possible controls"}, "[13]": {"conditions": "HLA-DQB1 hCV9494470, 0 Rare Alleles, CARE Prospective, Cleaner controls"}, "[14]": {"conditions": "HLA-DQB1 hCV9494470, 1 Rare Allele, CARE Case/Control, All Possible controls"}, "[15]": {"conditions": "HLA-DQB1 hCV9494470, 1 Rare Allele, CARE Case/Control, Cleaner controls"}, "[16]": {"conditions": "HLA-DQB1 hCV9494470, 1 Rare Allele, CARE Prospective, All Possible controls"}, "[17]": {"conditions": "HLA-DQB1 hCV9494470, 1 Rare Allele, CARE Prospective, Cleaner controls"}, "[18]": {"conditions": "HLA-DQB1 hCV9494470, Case/Control"}, "[19]": {"conditions": "HLA-DQB1 hCV9494470, Prospective"}, "[20]": {"conditions": "IL1RN hCV8737990, 0 Rare Alleles, CARE Case/Control, Cleaner controls"}, "[21]": {"conditions": "IL1RN hCV8737990, 0 Rare Alleles, CARE Prospective, All Possible controls"}, "[22]": {"conditions": "IL1RN hCV8737990, 0 Rare Alleles, CARE Prospective, Cleaner controls"}, "[23]": {"conditions": "IL1RN hCV8737990, 1 Rare Allele, CARE Case/Control, Cleaner controls"}, "[24]": {"conditions": "IL1RN hCV8737990, 1 Rare Allele, CARE Prospective, All Possible controls"}, "[25]": {"conditions": "IL1RN hCV8737990, 1 Rare Allele, CARE Prospective, Cleaner controls"}},
  "note": "Values joined by “and” are separate entries in the source; they are usually repeats but may differ in a detail not shown here. Identical values can stand only once.",
  "data": [
    {"smiles": "CC[C@H](C)C(=O)O[C@H]1C[C@H](O)C=C2C=C[C@H](C)[C@H](CC[C@@H](O)C[C@@H](O)CC(=O)O)[C@H]21", "note": "[pravastatin]", "values": [
      {"measurement": "Pravastatin Patients (%)", "setting": "[1]", "result": "(14.1%)"},
      {"measurement": "Pravastatin Patients n/total", "setting": "[1]", "result": "74/523"},
      {"measurement": "Pravastatin Patients (%)", "setting": "[2]", "result": "(10.3%)"},
      {"measurement": "Pravastatin Patients n/total", "setting": "[2]", "result": "44/426"},
      {"measurement": "Pravastatin Patients (%)", "setting": "[3]", "result": "(15.1%)"},
      {"measurement": "Pravastatin Patients n/total", "setting": "[3]", "result": "44/292"},
      {"measurement": "Pravastatin Patients (%)", "setting": "[4]", "result": "(10.2%)"},
      {"measurement": "Pravastatin Patients n/total", "setting": "[4]", "result": "44/433"},
      {"measurement": "Pravastatin Patients (%)", "setting": "[5]", "result": "(14.9%)"},
      {"measurement": "Pravastatin Patients n/total", "setting": "[5]", "result": "44/295"},
      {"measurement": "2 Rare Alleles (%), Pravastatin Patients", "setting": "HLA-DPB1 hCV8851085, CARE Case/Control", "result": "(25.7%)"},
      {"measurement": "2 rare alleles n/total (%), pravastatin patients", "setting": "[6]", "result": "(22.9%)"},
      {"measurement": "Pravastatin vs placebo odds ratio, 0 rare alleles", "setting": "[6]", "result": 0.57},
      {"measurement": "Pravastatin vs placebo odds ratio, 1 rare allele", "setting": "[6]", "result": 0.87},
      {"measurement": "Pravastatin vs placebo odds ratio, 2 rare alleles", "setting": "[6]", "result": 4.69},
      {"measurement": "2 rare alleles n/total (%), pravastatin patients", "setting": "[7]", "result": "(22.9%)"},
      {"measurement": "Pravastatin vs placebo odds ratio, 0 rare alleles", "setting": "[7]", "result": 0.58},
      {"measurement": "Pravastatin vs placebo odds ratio, 1 rare allele", "setting": "[7]", "result": 0.85},
      {"measurement": "Pravastatin vs placebo odds ratio, 2 rare alleles", "setting": "[7]", "result": 4.15},
      {"measurement": "2 Rare Alleles n/total, Pravastatin Patients", "setting": "HLA-DPB1 hCV25651174, CARE Case/Control", "result": "17/109"},
      {"measurement": "2 Rare Alleles n/total, Pravastatin Patients", "setting": "HLA-DPB1 hCV25651174, CARE Prospective", "result": "17/110 and 17/77"},
      {"measurement": "Pravastatin vs placebo odds ratio, 0 rare alleles", "setting": "[8]", "result": "0.59 and 0.51"},
      {"measurement": "Pravastatin vs placebo odds ratio, 1 rare allele", "setting": "[8]", "result": "0.84 and 0.75"},
      {"measurement": "Pravastatin vs placebo odds ratio, 2 rare alleles", "setting": "[8]", "result": "4.39 and 4.91"},
      {"measurement": "Pravastatin vs placebo odds ratio, 0 rare alleles", "setting": "[9]", "result": "0.59 and 0.52"},
      {"measurement": "Pravastatin vs placebo odds ratio, 1 rare allele", "setting": "[9]", "result": "0.84 and 0.72"},
      {"measurement": "Pravastatin vs placebo odds ratio, 2 rare alleles", "setting": "[9]", "result": "4.29 and 4.60"},
      {"measurement": "Pravastatin Patients (%)", "setting": "[10]", "result": "(11.1%)"},
      {"measurement": "Pravastatin Patients n/total", "setting": "[10]", "result": "92/826"},
      {"measurement": "Pravastatin Patients (%)", "setting": "[11]", "result": "(16.1%)"},
      {"measurement": "Pravastatin Patients n/total", "setting": "[11]", "result": "92/572"},
      {"measurement": "Pravastatin Patients (%)", "setting": "[12]", "result": "(11.0%)"},
      {"measurement": "Pravastatin Patients n/total", "setting": "[12]", "result": "92/840"},
      {"measurement": "Pravastatin Patients (%)", "setting": "[13]", "result": "(15.8%)"},
      {"measurement": "Pravastatin Patients n/total", "setting": "[13]", "result": "92/583"},
      {"measurement": "Pravastatin Patients (%)", "setting": "[14]", "result": "(7.9%)"},
      {"measurement": "Pravastatin Patients n/total", "setting": "[14]", "result": "28/353"},
      {"measurement": "Pravastatin Patients (%)", "setting": "[15]", "result": "(11.5%)"},
      {"measurement": "Pravastatin Patients n/total", "setting": "[15]", "result": "28/244"},
      {"measurement": "Pravastatin Patients (%)", "setting": "[16]", "result": "(7.8%)"},
      {"measurement": "Pravastatin Patients n/total", "setting": "[16]", "result": "28/361"},
      {"measurement": "Pravastatin Patients (%)", "setting": "[17]", "result": "(11.3%)"},
      {"measurement": "Pravastatin Patients n/total", "setting": "[17]", "result": "28/247"},
      {"measurement": "Pravastatin vs placebo odds ratio, 0 rare alleles", "setting": "[18]", "result": "0.99 and 0.90"},
      {"measurement": "Pravastatin vs placebo odds ratio, 1 rare allele", "setting": "[18]", "result": "0.40 and 0.36"},
      {"measurement": "Pravastatin vs placebo odds ratio, 2 rare alleles", "setting": "[18]", "result": "2.00 and 2.22"},
      {"measurement": "Pravastatin vs placebo odds ratio, 0 rare alleles", "setting": "[19]", "result": "0.99 and 0.87"},
      {"measurement": "Pravastatin vs placebo odds ratio, 1 rare allele", "setting": "[19]", "result": "0.42 and 0.38"},
      {"measurement": "Pravastatin vs placebo odds ratio, 2 rare alleles", "setting": "[19]", "result": "2.06 and 2.16"},
      {"measurement": "Pravastatin Patients (%)", "setting": "[20]", "result": "(14.9%)"},
      {"measurement": "Pravastatin Patients n/total", "setting": "[20]", "result": "66/444"},
      {"measurement": "Pravastatin Patients (%)", "setting": "[21]", "result": "(10.3%)"},
      {"measurement": "Pravastatin Patients n/total", "setting": "[21]", "result": "66/642"},
      {"measurement": "Pravastatin Patients (%)", "setting": "[22]", "result": "(14.6%)"},
      {"measurement": "Pravastatin Patients n/total", "setting": "[22]", "result": "66/453"},
      {"measurement": "Pravastatin Patients (%)", "setting": "[23]", "result": "(13.0%)"},
      {"measurement": "Pravastatin Patients n/total", "setting": "[23]", "result": "43/332"},
      {"measurement": "Pravastatin Patients (%)", "setting": "[24]", "result": "(8.7%)"},
      {"measurement": "Pravastatin Patients n/total", "setting": "[24]", "result": "43/496"},
      {"measurement": "Pravastatin Patients (%)", "setting": "[25]", "result": "(12.8%)"},
      {"measurement": "Pravastatin Patients n/total", "setting": "[25]", "result": "43/336"},
      {"measurement": "2 Rare Alleles (%), Pravastatin Patients", "setting": "IL1RN hCV8737990, CARE Case/Control", "result": "(27.4%)"},
      {"measurement": "2 rare alleles n/total (%), pravastatin patients", "setting": "IL1RN hCV8737990, Case/Control", "result": "(21.1%)"},
      {"measurement": "Pravastatin vs placebo odds ratio, 0 rare alleles", "setting": "IL1RN hCV8737990, Case/Control", "result": 0.77},
      {"measurement": "Pravastatin vs placebo odds ratio, 1 rare allele", "setting": "IL1RN hCV8737990, Case/Control", "result": 0.50},
      {"measurement": "Pravastatin vs placebo odds ratio, 2 rare alleles", "setting": "IL1RN hCV8737990, Case/Control", "result": 1.97},
      {"measurement": "2 rare alleles n/total (%), pravastatin patients", "setting": "IL1RN hCV8737990, Prospective", "result": "(20.7%)"},
      {"measurement": "Pravastatin vs placebo odds ratio, 0 rare alleles", "setting": "IL1RN hCV8737990, Prospective", "result": 0.80},
      {"measurement": "Pravastatin vs placebo odds ratio, 1 rare allele", "setting": "IL1RN hCV8737990, Prospective", "result": 0.46},
      {"measurement": "Pravastatin vs placebo odds ratio, 2 rare alleles", "setting": "IL1RN hCV8737990, Prospective", "result": 1.92},
      {"measurement": "Pravastatin vs placebo odds ratio, 0 rare alleles", "setting": "IL4R hCV2769554, Case/Control", "result": "0.58 and 0.57"}
    ]}
  ]
}
